Target: T1, human V1a receptor (Homo sapiens, UniProt P37288)
T1 construct: host or cells: CHO cells
Test: Human vasopressin V1a receptor binding assay
Conditions: hV1a CHO cell line, competition with 1 nM 3H-AVP; for IC50: read-out: V1a Binding Affinity IC50; for Ki: read-out: V1a Ki
Protocol: EXAMPLE. Human vasopressin V1a receptor binding assay. A cell line expressing the human V1a receptor in CHO cells (henceforth referred to as the hV1a cell line) was obtained from Dr. Michael Brownstein, NIMH, Bethesda, Md., USA. The hV1a cDNA sequence is described by Thibonnier et al., Journal of Biological Chemistry, 269, 3304-3310 (1994), and the expression method was the same as described by Morel et al. (1992). The hV1a cell line was grown in alpha-MEM with 10% fetal bovine serum and 250 ug/ml G418 (Gibco, Grand Island, N.Y., USA). For competitive binding assay, hV1a cells were plated into 6-well culture plate at 1:10 dilution from a confluency flask, and maintained in culture for at least two days. Culture medium was then removed, cells were washed with 2 ml binding buffer (25 mM Hepes, 0.25% BSA, 1×DMEM, PH=7.0). To each well, 990 μl binding buffer containing 1 nM 3H-AVP was added, and followed by 10 μl series diluted Example compounds dissolved in DMSO. […] 100 nM cold AVP (Sigma) was used to assess non-specific binding. Cells were incubated for 45 minutes at 37° C., assay mixture was removed and each well was washed three times with PBS (pH=7.4). 1 ml 2% SDS was added per well and plates were let sit for 30 minutes. The whole content in a well was transferred to a scintillation vial. Each well was rinsed with 0.5 ml PBS which was then added to the corresponding vial. Scintillation fluid (Ecoscint, National Diagnostics, Atlanta, Ga.) was then added at 3 ml per vial. Samples were counted in a liquid scintillation counter (Beckman LS3801). IC50 values were calculated by Prism Curve fitting software.
All of the alkanedioic esters and amides exemplified in the foregoing examples dissolved in DMSO were tested in this assay. Binding curves were generated according to methods described by Thibonnier et al. (1994). [^3H]-AVP was added to the hV1a cell cultures followed by 10-fold dilutions of each test compound.

T1 sequence (P37288 whole entry): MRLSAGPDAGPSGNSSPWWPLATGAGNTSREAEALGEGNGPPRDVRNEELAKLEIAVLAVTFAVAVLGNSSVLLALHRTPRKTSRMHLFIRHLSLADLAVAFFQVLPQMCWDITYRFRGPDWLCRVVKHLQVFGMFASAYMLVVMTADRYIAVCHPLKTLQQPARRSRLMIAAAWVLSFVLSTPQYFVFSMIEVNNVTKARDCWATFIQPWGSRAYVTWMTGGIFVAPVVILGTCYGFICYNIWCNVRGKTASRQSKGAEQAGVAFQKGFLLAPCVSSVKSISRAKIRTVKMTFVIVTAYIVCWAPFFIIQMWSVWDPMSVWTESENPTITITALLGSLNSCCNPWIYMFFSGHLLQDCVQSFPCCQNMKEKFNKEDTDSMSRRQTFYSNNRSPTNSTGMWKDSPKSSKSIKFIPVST

SMILES | IC50 [nM] | Ki [nM]
CCCCN(Cc1ccccc1)C(=O)[C@H](CCC(=O)N1CCN(C2CCCCC2)CC1)N1C(=O)[C@@H](N2C(=O)OC[C@@H]2c2ccccc2)[C@H]1/C=C/c1ccccc1 [Example 198] | ~100 | –
O=C(NC1CCCc2ccccc21)C(CCC(=O)N1CCN(C2CCCCC2)CC1)N1C(=O)C(N2C(=O)OCC2c2ccccc2)C1C=Cc1cccc(C(F)(F)F)c1 (stereo not drawn) [Example 246] | 2.1 | 1.3
O=C(NCc1cccc(C(F)(F)F)c1)[C@H](CC(=O)N1CCN(C2CCCCC2)CC1)N1C(=O)[C@@H](N2C(=O)OC[C@@H]2c2ccccc2)[C@H]1/C=C/c1ccccc1 [Example 66] | 50 | –
O=C(NCc1cc(C(F)(F)F)cc(C(F)(F)F)c1)C(CCC(=O)N1CCN(C2CCCCC2)CC1)N1C(=O)C(N2C(=O)OCC2c2ccccc2)C1C=Cc1ccccc1 (stereo not drawn) [Example 188] | 7.26 | 4.45
O=C(NC1CCCc2ccccc21)C(CCC(=O)N1CCN(C2CCCCC2)CC1)N1C(=O)C(N2C(=O)OCC2c2ccccc2)C1C=Cc1cc(Cl)cc(Cl)c1 (stereo not drawn) [Example 252] | 1.8 | 1.1
CCN1CCCC1CNC(=O)CCC(C(=O)NC1CCCc2ccccc21)N1C(=O)C(N2C(=O)OCC2c2ccccc2)C1C=Cc1ccccc1 (stereo not drawn) [Example 221AI] | ~50 | –
O=C(NCc1cc(C(F)(F)F)ccc1F)C(CCC(=O)N1CCN(C2CCCCC2)CC1)N1C(=O)C(N2C(=O)OCC2c2ccccc2)C1C=Cc1ccccc1 (stereo not drawn) [Example 177] | 0.67 | 0.41
O=C(NCc1ccccc1Br)C(CC(=O)N1CCC(N2CCCCC2)CC1)N1C(=O)C(N2C(=O)OCC2c2ccccc2)C1CCc1ccccc1 (stereo not drawn) [Example 682] | – | 0.9
CC(NC(=O)C(CC(=O)N1CCC(N2CCCCC2)CC1)N1C(=O)C(N2C(=O)OCC2c2ccccc2)C1CCc1cccc([N+](=O)[O-])c1)c1ccccc1 (stereo not drawn) [Example 597] | 6.2 | 3.8
O=C(NCc1cccs1)C(CCC(=O)N1CCN(C2CCCCC2)CC1)N1C(=O)C(N2C(=O)OCC2c2ccccc2)C1C=Cc1ccccc1 (stereo not drawn) [Example 213] | 0.78 | 0.48
O=C(NC(c1ccccc1)C(F)(F)F)C(CC(=O)N1CCC(N2CCCCC2)CC1)N1C(=O)C(N2C(=O)OCC2c2ccccc2)C1CCc1ccccc1 (stereo not drawn) [Example 623] | – | 0.85
O=C(NCc1cccc(C(F)(F)F)c1F)C(CCC(=O)N1CCN(C2CCCCC2)CC1)N1C(=O)C(N2C(=O)OCC2c2ccccc2)C1C=Cc1ccccc1 (stereo not drawn) [Example 180] | 0.33 | 0.2
CC(C)(NC(=O)C(CCC(=O)N1CCN(C2CCCCC2)CC1)N1C(=O)C(N2C(=O)OCC2c2ccccc2)C1C=Cc1ccccc1)c1ccccc1 (stereo not drawn) [Example 204] | 6 | 3.7
O=C(NC(c1ccccc1)C(F)(F)F)C(CC(=O)N1CCC(N2CCCCC2)CC1)N1C(=O)C(N2C(=O)OCC2c2ccccc2)C1CCc1ccccc1 (stereo not drawn) [Example 626] | – | 0.27
O=C(NCc1ccccc1C(F)(F)F)C(CCC(=O)N1CCN(C2CCCCC2)CC1)N1C(=O)C(N2C(=O)OCC2c2ccccc2)C1C=Cc1ccccc1 (stereo not drawn) [Example 182] | 1.52 | 0.93
COc1ccccc1CNC(=O)C(CCC(=O)N1CCN(C2CCCCC2)CC1)N1C(=O)C(N2C(=O)OCC2c2ccccc2)C1C=Cc1ccccc1 (stereo not drawn) [Example 220] | 5.3 | 3.26
COc1cccc(C=CC2C(N3C(=O)OCC3c3ccccc3)C(=O)N2C(CCC(=O)N2CCN(C3CCCCC3)CC2)C(=O)NC2CCCc3ccccc32)c1 (stereo not drawn) [Example 242] | 2.2 | 1.36
CC(NC(=O)C(CC(=O)N1CCC(N2CCCCC2)CC1)N1C(=O)C(N2C(=O)OCC2c2ccccc2)C1CCc1ccc(O)cc1)c1ccccc1 (stereo not drawn) [Example 594] | – | 19
CC(NC(=O)C(CCC(=O)N1CCN(C2CCCCC2)CC1)N1C(=O)C(N2C(=O)OCC2c2ccccc2)C1C=Cc1ccccc1)c1ccccc1 (stereo not drawn) [Example 206] | 1.58 | 0.97

SMILES | IC50 [nM] | Ki [nM]
O=C(NCc1ccncc1)C(CCC(=O)N1CCN(C2CCCCC2)CC1)N1C(=O)C(N2C(=O)OCC2c2ccccc2)C1C=Cc1ccccc1 (stereo not drawn) [Example 210] | 29.5 | 18.1
O=C(NCc1ccco1)C(CCC(=O)N1CCN(C2CCCCC2)CC1)N1C(=O)C(N2C(=O)OCC2c2ccccc2)C1C=Cc1ccccc1 (stereo not drawn) [Example 211] | 5.37 | 3.29
O=C(NC1(c2ccccc2)CCCC1)C(CCC(=O)N1CCN(C2CCCCC2)CC1)N1C(=O)C(N2C(=O)OCC2c2ccccc2)C1C=Cc1cccc(Cl)c1 (stereo not drawn) [Example 244] | 3.4 | 2.1
O=C(NCc1cccc(C(F)(F)F)c1)C(CCC(=O)N1CCN(C2CCCCC2)CC1)N1C(=O)C(N2C(=O)OCC2c2ccccc2)C1C=Cc1ccccc1 (stereo not drawn) [Example 120H] | 2.75 | 1.68
CCN1CCN(C(=O)CCC(C(=O)NC2(c3ccccc3)CCCC2)N2C(=O)C(N3C(=O)OCC3c3ccccc3)C2C=Cc2ccccc2)CC1 (stereo not drawn) [Example 239] | 6.6 | 4
O=C(C(COCc1ccccc1)N1C(=O)C(N2C(=O)OCC2c2ccccc2)C1C=Cc1ccccc1)N1CCC(CN2CCCCC2)CC1 (stereo not drawn) [Example 232E] | 0.28 | 0.17
O=C(NC1CCCc2ccccc21)C(CCC(=O)N1CCN(C2CCCCC2)CC1)N1C(=O)C(N2C(=O)OCC2c2ccccc2)C1C=Cc1ccccc1Cl (stereo not drawn) [Example 250] | 6.5 | 4
CC(NC(=O)C(CC(=O)N1CCC(N2CCCCC2)CC1)N1C(=O)C(N2C(=O)OCC2c2ccccc2)C1CCc1cccc(N)c1)c1ccccc1 (stereo not drawn) [Example 600] | 14.4 | 8.8
O=C(NCCc1ccccc1)C(CCC(=O)N1CCN(C2CCCCC2)CC1)N1C(=O)C(N2C(=O)OCC2c2ccccc2)C1C=Cc1ccccc1 (stereo not drawn) [Example 200] | 5.08 | 3.11
Cc1ccc(CNC(=O)C(CCC(=O)N2CCN(C3CCCCC3)CC2)N2C(=O)C(N3C(=O)OCC3c3ccccc3)C2C=Cc2ccccc2)o1 (stereo not drawn) [Example 212] | 0.95 | 0.58
COc1cc(CNC(=O)C(CCC(=O)N2CCN(C3CCCCC3)CC2)N2C(=O)C(N3C(=O)OCC3c3ccccc3)C2C=Cc2ccccc2)cc(OC)c1 (stereo not drawn) [Example 201] | 10.5 | 6.43
O=C(NC1(c2ccccc2)CCCC1)C(CCC(=O)N1CCN(Cc2ccccc2)CC1)N1C(=O)C(N2C(=O)OCC2c2ccccc2)C1C=Cc1ccccc1 (stereo not drawn) [Example 240] | 25 | 15.5
O=C(NC1CCc2ccccc21)C(CCC(=O)N1CCN(C2CCCCC2)CC1)N1C(=O)C(N2C(=O)OCC2c2ccccc2)C1C=Cc1ccccc1 (stereo not drawn) [Example 221R] | 5.13 | 3.14
O=C(NC1CCCc2ccccc21)C(CCC(=O)N1CCN(C2CCCC2)CC1)N1C(=O)C(N2C(=O)OCC2c2ccccc2)C1C=Cc1ccccc1 (stereo not drawn) [Example 241] | 2 | 1.24
O=C(NCc1cccc(OC(F)(F)F)c1)C(CCC(=O)N1CCN(C2CCCCC2)CC1)N1C(=O)C(N2C(=O)OCC2c2ccccc2)C1C=Cc1ccccc1 (stereo not drawn) [Example 172] | 4.5 | 2.78
CN(Cc1cccc(C(F)(F)F)c1)C(=O)C(CC(=O)N1CCC(N2CCCCC2)CC1)N1C(=O)C(N2C(=O)OCC2c2ccccc2)C1C=Cc1cccc(Cl)c1 (stereo not drawn) [Example 247] | 0.6 | 0.39
Cc1ccccc1C(C)(C)NC(=O)C(CCC(=O)N1CCN(C2CCCCC2)CC1)N1C(=O)C(N2C(=O)OCC2c2ccccc2)C1C=Cc1ccccc1 (stereo not drawn) [Example 221] | 5.1 | –
Cc1cccc(CNC(=O)C(CCC(=O)N2CCN(C3CCCCC3)CC2)N2C(=O)C(N3C(=O)OCC3c3ccccc3)C2C=Cc2ccccc2)c1 (stereo not drawn) [Example 193] | 1.17 | 0.72

— patent US11628160B2, “Compositions and methods for treating brain injury” (Azevan Pharmaceuticals, Inc., priority 2017, dated 2023)
